Test results as given in patent publication US20240142467A1, “Use of Biomarkers in the Treatment of Fibrotic Conditions with a PDE4B-inhibitor” (Boehringer Ingelheim International GmbH, priority 2022, published 2024).

Tests used:
[1] = test system: bleomycin-induced lung fibrosis; test: Rat bleomycin model of pulmonary fibrosis; assay type: in vivo, Wistar rats
Procedure: Pulmonary remodeling was induced in rats by a single intratracheal administration of 1 mg/kg bleomycin.
Adult, test-naïve, male Wistar rats (WI(Han)); 280-300 g) were purchased from Janvier (Janvier Labs, Le Genest-Saint-Isle, France). All animal experimentation was conducted in accordance with German national guidelines and legal regulations and approved by the ethical committee Regierungspräsidium Tübingen (Germany) (Permit Number: 12-012).
Bleomycin was dissolved in phosphate buffered saline (PBS) to a final concentration of […]. On day 0, animals were transiently anaesthetised with isoflurane (3-4%) in oxygen. Using a 1 ml-Syringe with a 22-gauge flexible cannula, 200 μL/kg of either saline or bleomycin (final dose 1 mg/kg) were administered intratracheally.
The PDE4-inhibitor of formula A′ was dissolved in 0.5% hydroxyethyl cellulose containing 0.01% Tween20 and applied by oral gavage at a dose of 2.5 mL/kg twice daily at 06:00 and 18:00 from day 10 until day 20.
On day 18, animals were anaesthetized using 3-4% isoflurane and placed on the μCT (Quantum FX) scanner mounting plate. After measurement, animals were returned to the home cage for recovery. During imaging, synchronization procedures were employed for avoidance of motion blur (respiration, heart beat) thereby improving the quality of the images. The reconstruction of the three-dimensional pictures from the raw data could subsequently be performed.
Animals were anaesthetised with Narcoren (60 mg/mL/kg body weight i.p.) and Ketamine (0.5-1 mg/animal, i.m.). The trachea was exposed, a small incision made, and a tracheal tube fixed within the trachea by a ligature. Spontaneous breathing was suppressed by pancuronium (0.8 mg/kg; 1 mL/kg body weight, i.v.) and animals were mechanically ventilated with a tidal volume of 10 mL/kg, breathing frequency of 90 breaths/minute and a positive end expiratory pressure of 3 cmH2O. Airway resistance, compliance, elastance and pressure volume loop was determined by means of a FlexiVent system supported by software version 7.2. To perform the lung function measurement the template “FlexiVent FX-Rat Default-rel.B” with the script “Rat 6basic_1loop v7.0 Lamb” was used. A deep inspiration to total lung capacity (Deep Inflation) was performed with an inflation pressure limited to 30 cmH2O. A “Snapshot-90 v7.0, Quick Prime-3 v7.0, PVS-V v7.0 and PVs-P v7.0 measurement was subsequently conducted. After the lung function measurement animals were euthanized by an overdose of Narcoren (0.16 g/5 ml, 1 ml/animal i.v.).
The right main bronchus was occluded with a ligature and the right lung was removed. […]
All data are presented as means±S.E.M. of n animals. Statistical differences between groups were analyzed by the non-clinical statistical group.

[2] = test system: patients with idiopathic pulmonary fibrosis; test: Phase 2 trial NCT04419506: treatment-emergent adverse events; conditions: for mean observed weight loss: over 12 weeks; for Any adverse event: 18 mg twice daily, 12 weeks
From the text: The study was a double-blind, placebo-controlled, parallel-design, Phase 2 study performed at 90 sites in 22 countries. […] After completion of the 12-week treatment period, patients entered a 1-week follow-up period. Patients who prematurely discontinued study medication were asked to attend all visits as originally planned to minimize missing data. […] Patients, investigators, central reviewers, and those involved in the study conduct and analysis were unaware of the treatment assignments. An interactive voice-response system was used to perform randomization.
The secondary endpoint was the percentage of patients with treatment-emergent adverse events.
All treated patients were included in the safety analysis, stratified by use of background antifibrotics (no or yes), and the analysis was descriptive in nature. Safety was assessed by clinical and laboratory evaluation and the recording of treatment-emergent adverse events, as coded with the use of the Medical Dictionary for Regulatory Activities, version 22.0.

[3] = with background antifibrotics (N = 49)
[4] = without background antifibrotics
[5] = without background antifibrotics (N = 48)

Compound: [O-][S@+]1CCc2nc(N3CCC(c4ncc(Cl)cn4)CC3)nc(NC3(CO)CCC3)c21 [Compound of formula A′]
- improvement in tissue volume (ratio of remodeled tissue to total lung volume) measured by μCT ([1]; 2.5 mg/kg oral twice daily, day 10 to day 20, μCT on day 18, bleomycin 1 mg/kg intratracheal, P<0.05): 64%
- restoration of lung volume measured at a pressure of 30 cmH2O ([1]; oral twice daily, day 10 to day 20, FlexiVent, P<0.05): 31%
- reduction of OPN levels in lung tissue ([1]; oral twice daily, day 10 to day 20, OPN ELISA of right lung homogenate): approx. 49%
- lung function ([1]; therapeutic rat model of bleomycin-induced lung fibrosis): improved lung function
- mean observed weight loss ([2]; group with antifibrotics): -1.41 kg
- mean observed weight loss ([2]; group without antifibrotics): -0.76 kg
- patients with fatal adverse events ([2]; treatment arm, both background groups together): 2 patients
- discontinuation of the study because of adverse events ([2]; with background antifibrotics): 10 patients
- patients with gastrointestinal disorders ([2]; with background antifibrotics): 36.7%
- patients with serious adverse events ([2]; with background antifibrotics): 6.1%
- patients with severe adverse events ([2]; with background antifibrotics): 4.1%
- Adverse events leading to discontinuation of study drug [2, 3]: 10 (20.4) n (%)
- Asthenia [2, 3]: 1 (2.0) n (%)
- Cough [2, 3]: 4 (8.2) n (%)
- Decreased appetite [2, 3]: 2 (4.1) n (%)
- Diarrhea [2, 3]: 15 (30.6) n (%)
- Diarrhea leading to discontinuation [2, 3]: 3 (6.1) n (%)
- Dyspepsia [2, 3]: 2 (4.1) n (%)
- Dyspnea [2, 3]: 0 (0.0) n (%)
- Fatigue [2, 3]: 1 (2.0) n (%)
- Flatulence [2, 3]: 2 (4.1) n (%)
- Gastrointestinal disorders [2, 3]: 18 (36.7) n (%)
- General disorders and administration site conditions [2, 3]: 7 (14.3) n (%)
- Headache [2, 3]: 3 (6.1) n (%)
- Infections and infestations [2, 3]: 7 (14.3) n (%)
- Investigations [2, 3]: 10 (20.4) n (%)
- Investigator-defined drug-related adverse events [2, 3]: 18 (36.7) n (%)
- Metabolism and nutrition disorders [2, 3]: 3 (6.1) n (%)
- Nasopharyngitis [2, 3]: 4 (8.2) n (%)
- Nausea [2, 3]: 1 (2.0) n (%)
- Nervous system disorder [2, 3]: 9 (18.4) n (%)
- Patients with pre-specified adverse events of special interest (vasculitis and hepatic injury) [2, 3]: 1 (2.0) n (%)
- Respiratory thoracic and mediastinal disorders [2, 3]: 6 (12.2) n (%)
- Serious adverse events: All [2, 3]: 3 (6.1) n (%)
- Serious adverse events: Other comparable medical criteria [2, 3]: 0 (0.0) n (%)
- Serious adverse events: Required or prolonged hospitalization [2, 3]: 3 (6.1) n (%)
- Serious adverse events: Resulted in death [2, 3]: 1 (2.0) n (%)
- Severe adverse events [2, 3]: 2 (4.1) n (%)
- Vomiting [2, 3]: 2 (4.1) n (%)
- Weight decreased [2, 3]: 1 (2.0) n (%)
- Any adverse event [2, 3]: 36 (73.5) n (%)
- patients with serious adverse events ([2]; without antifibrotics): 6.3%
- discontinuation of the study because of adverse events [2, 4]: 3 patients
- patients with gastrointestinal disorders [2, 4]: 27.1%
- patients with severe adverse events [2, 4]: 4.2%
- Adverse events leading to discontinuation of study drug [2, 5]: 3 (6.3) n (%)
- Asthenia [2, 5]: 3 (6.3) n (%)
- Cough [2, 5]: 3 (6.3) n (%)
- Decreased appetite [2, 5]: 1 (2.1) n (%)
- Diarrhea [2, 5]: 8 (16.7) n (%)
- Diarrhea leading to discontinuation [2, 5]: 0 (0.0) n (%)
- Dyspepsia [2, 5]: 3 (6.3) n (%)
- Dyspnea [2, 5]: 3 (6.3) n (%)
- Fatigue [2, 5]: 2 (4.2) n (%)
- Flatulence [2, 5]: 3 (6.3) n (%)
- Gastrointestinal disorders [2, 5]: 13 (27.1) n (%)
- General disorders and administration site conditions [2, 5]: 9 (18.8) n (%)
- Headache [2, 5]: 3 (6.3) n (%)
- Infections and infestations [2, 5]: 6 (12.5) n (%)
- Investigations [2, 5]: 5 (10.4) n (%)
- Investigator-defined drug-related adverse events [2, 5]: 9 (18.8) n (%)
- Metabolism and nutrition disorders [2, 5]: 1 (2.1) n (%)
- Nasopharyngitis [2, 5]: 0 (0.0) n (%)
- Nausea [2, 5]: 2 (4.2) n (%)
- Nervous system disorder [2, 5]: 4 (8.3) n (%)
- Patients with pre-specified adverse events of special interest (vasculitis and hepatic injury) [2, 5]: 0 (0.0) n (%)
- Respiratory thoracic and mediastinal disorders [2, 5]: 8 (16.7) n (%)
- Serious adverse events: All [2, 5]: 3 (6.3) n (%)
- Serious adverse events: Other comparable medical criteria [2, 5]: 1 (2.1) n (%)
- Serious adverse events: Required or prolonged hospitalization [2, 5]: 2 (4.2) n (%)
- Serious adverse events: Resulted in death [2, 5]: 1 (2.1) n (%)
- Severe adverse events [2, 5]: 2 (4.2) n (%)
- Vomiting [2, 5]: 1 (2.1) n (%)
- Weight decreased [2, 5]: 2 (4.2) n (%)
- Any adverse event [2, 5]: 31 (64.6) n (%)
